Measured values taken from publication PMC8568133, “Evaluation of bisphenylthiazoles as a promising class for combating multidrug-resistant fungal infections” (PLoS ONE, 2021).
In brackets after ≈: the same amount, converted by molar mass. Like-named read-outs stand apart in the source and are kept apart here.

How the values were obtained:
[1] = system: Candida auris; assay: Checkerboard assay of compound 17 with standard antifungals; format: cell-based; details: for FICI (fractional inhibitory concentration index) / Interpretation of interaction: antifungal combined with compound 17; for MIC Combined, Antifungal: antifungal in combination with compound 17; for MIC: Candidozyma auris, checkerboard, agent alone
Procedure: To evaluate the interactions between bisphenylthiazoles and the standard antifungal agents (fluconazole, amphotericin B, 5-fluorocytosine and caspofungin) against 2 C. auris clinical isolates, a standard checkerboard assay was utilized as described in previous studies. The fractional inhibitory concentration index (FICI) was calculated for each interaction. Interactions where the FICI was ≤0.5 were categorized as synergistic (SYN). FICI values of >0.5–1.25 were categorized as additive (ADD). FICI values of >1.25–4 were categorized as indifferent, and FICI values of > 4 were categorized as antagonistic. The experiment was repeated three independent times.

[2] = system: Candida glabrata; assay: Antifungal broth microdilution MIC (50% growth inhibition) and MFC; format: cell-based; details: Nakaseomyces glabratus
Procedure: (§1) Serial dilutions (from 128 μg/mL to 0.06 μg/mL) of the tested compounds and control drugs (fluconazole, itraconazole and amphotericin) (in triplicates), were screened against clinical isolates of Candida albicans, Candida auris, Candida glabrata, Candida parapsilosis, Candida tropicalis, Candida krusei, Cryptococcus neoformans, Cryptococcus gattii and Aspergillus fumigatus species using the broth microdilution method according to the Clinical and Laboratory Standards Institute guidelines. MICs were determined as the lowest concentration of the compounds that inhibited the fungal growth by 50% after incubation at 35 °C for 24 h (for Candida and Aspergillus), or 48 h (for Cryptococcus). The minimum fungicidal concentration (MFC) of these compounds was tested by plating 4 μL from wells with no growth onto YPD agar plates. The plates were incubated at 37 °C for 24 hours before recording the MFC, which was categorized as the lowest concentration that reduced fungal growth by 99.9% [45]. The experiment was repeated three independent times.

[3] = system: Candida tropicalis; assay: as above; format: cell-based; details: Candida tropicalis, ATCC1369
Procedure: as §1

[4] = system: Candida krusei; assay: as above; format: cell-based; details: Pichia kudriavzevii, read-out: MIC
Procedure: as §1

[5] = system: Candida albicans; assay: as above; format: cell-based
Procedure: as §1

[6] = system: Candida parapsilosis; assay: Antifungal broth microdilution MIC (50% growth inhibition); format: cell-based; details: Lodderomyces parapsilosis, read-out: MIC
Procedure: as §1

[7] = system: C. difficile ATCC BAA1870; assay: Broth microdilution MIC, initial antibacterial screening (anaerobic); format: cell-based, Clostridioides difficile
Procedure: (§2) The minimum inhibitory concentrations (MICs) of the tested compounds and control drugs against clinically-relevant bacterial strains were determined using the broth microdilution method, according to guidelines outlined by the Clinical and Laboratory Standards Institute (CLSI), or as described previously.
(§3) Initial screening of the bisphenylthiazoles against Gram-positive and Gram-negative bacteria. Bacterial strains, (except C. difficile that was grown anaerobically on brain heart infusion supplemented agar at 37° C for 48 hours), were grown aerobically overnight on tryptone soy agar plates at 37° C. Afterwards, a bacterial solution equivalent to 0.5 McFarland standard was prepared and diluted in cation-adjusted Mueller-Hinton broth (CAMHB) (for S. aureus, and E. coli) to achieve a bacterial concentration of about 5 × 10^5 CFU/mL. C. difficile was diluted in brain heart infusion supplemented broth, supplemented with yeast extract, hemin and vitamin K to achieve a bacterial concentration of about 5 × 10^5 CFU/mL. Compounds and control drugs were added in the first row of the 96 -well plates, and serially diluted with the corresponding media containing bacteria. Plates were then, incubated aerobi cally at 37° C for 18-20 hours (for S. aureus and E. coli). C. difficile was incubated anaerobically at 37° C for 48 hours. […]
(§4) the visual growth of bacteria.

[8] = system: E. coli BW25113 (wild-type); assay: Broth microdilution MIC, initial antibacterial screening; format: cell-based, Escherichia coli
Procedure: as §2, §3, §4

[9] = system: E. coli JW55031 (tolC-mutant); assay: microbe, parasite or virus in culture; format: cell-based, Escherichia coli
Procedure: as §2, §3, §4

[10] = system: MRSA USA300; assay: Broth microdilution MIC, initial antibacterial screening; format: cell-based, S. aureus
Procedure: as §2, §3, §4

[11] = system: Aspergillus fumigatus; assay: Antifungal broth microdilution MIC (50% growth inhibition); format: cell-based; details: Aspergillus fumigatus, read-out: MIC
Procedure: as §1

[12] = Candida auris 381 (azole-sensitive)
[13] = Candida auris 385 (azole-resistant)
[14] = Candida albicans, C. albicans SS5314 (wild-type), read-out: MIC
[15] = Clostridioides difficile, ATCCBAA1870, read-out: MIC
[16] = Escherichia coli, read-out: MIC
[17] = Staphylococcus aureus, MRSA USA300, read-out: MIC

Structure (SMILES) | MIC ([5]; C. albicans SS5314 (wild-type)) [mg/L] | MIC [7] [mg/L] | MIC [8] [mg/L] | MIC ([9]; E. coli JW55031 (tolC-mutant)) [mg/L] | MIC ([10]; MRSA USA300) [mg/L] | MIC [7, 15] [mg/L] | MIC [8, 16] [mg/L] | MIC ([9]; Escherichia coli) [mg/L] | MIC [10, 17] [mg/L] | further results
Nc1nc(=O)[nH]cc1F [5-Fluorocytosine] |  |  |  |  |  |  |  |  |  | FICI (fractional inhibitory concentration index) [1, 12]: 1.250; Interpretation of interaction [1, 12]: ADD (FICI values of >0.5–1.25 were categorized as additive (ADD)); MIC Combined, Antifungal [1, 12]: 0.125 mg/L; FICI (fractional inhibitory concentration index) [1, 13]: 1.125; Interpretation of interaction [1, 13]: ADD (FICI values of >0.5–1.25 were categorized as additive (ADD)); MIC Combined, Antifungal [1, 13]: 0.25 mg/L; MIC [1, 12]: 0.125 mg/L; MIC [1, 13]: 0.25 mg/L
CC[C@H](C)C[C@H](C)CCCCCCCCC(=O)N[C@H]1C[C@@H](O)[C@@H](NCCN)NC(=O)[C@@H]2[C@@H](O)CCN2C(=O)[C@H]([C@H](O)CCN)NC(=O)[C@H]([C@H](O)[C@@H](O)c2ccc(O)cc2)NC(=O)[C@@H]2C[C@@H](O)CN2C(=O)[C@H]([C@@H](C)O)NC1=O [Caspofungin] |  |  |  |  |  |  |  |  |  | MIC [2]: 0.125 mg/L (≈ 0.114 µM); MIC ([2]; ATCC66032, C. glabrata ATCC 66032, read-out: MIC): 0.25 mg/L (≈ 0.229 µM); MIC [3]: 0.125 mg/L (≈ 0.114 µM); MIC ([4]; ATCC34135, C. krusei ATCC 34135): 0.5 mg/L (≈ 0.457 µM); MIC ([4]; C. krusei CAB 396420): 0.5 mg/L (≈ 0.457 µM); MIC ([5]; Candida albicans, ATCC10231): 0.125 mg/L (≈ 0.114 µM); MIC ([5]; Candida albicans, C. albicans NR-29448 (fluconazole-resistant), read-out: MIC): 0.25 mg/L (≈ 0.229 µM); MIC ([6]; ATCC22019, C. parapsilosis ATCC 22019): 0.5 mg/L (≈ 0.457 µM); MIC ([6]; C. parapsilosis CAB 502638): 0.5 mg/L (≈ 0.457 µM); FICI (fractional inhibitory concentration index) [1, 12]: 1.250; Interpretation of interaction [1, 12]: ADD (FICI values of >0.5–1.25 were categorized as additive (ADD)); MIC Combined, Antifungal [1, 12]: 0.5 mg/L; FICI (fractional inhibitory concentration index) [1, 13]: 1.125; Interpretation of interaction [1, 13]: ADD (FICI values of >0.5–1.25 were categorized as additive (ADD)); MIC Combined, Antifungal [1, 13]: 0.063 mg/L; MIC [1, 12]: 0.5 mg/L; MIC [1, 13]: 0.063 mg/L
Cc1nc(-c2ccc(-c3ccccc3)cc2)sc1-c1nnc(NCCN(C)C)o1 [Compound 8, N-{5-[2-((1,1’-Biphenyl)-4-yl)-4-methylthiazol-5-yl]-1,3,4-oxadiazol-2-yl}-N,N-dimethylethane-1,2-diamine] | 16 (≈ 39.5 µM) | 16 (≈ 39.5 µM) | 64 (≈ 158 µM) | 16 (≈ 39.5 µM) | 32 (≈ 78.9 µM) |  |  |  |  | 
Cc1nc(-c2ccc(-c3ccccc3)cc2)sc1-c1nnc(NCC(=N)N)o1 [Compound 9, 2-{[5-(2-((1,1’-biphenyl)-4-yl)-4-methylthiazol-5-yl)-1,3,4-oxadiazol-2-yl]amino} acetimidamide] | >64 | >64 | >64 | >64 | >64 |  |  |  |  | 
Cc1nc(-c2ccc(-c3ccccc3)cc2)sc1-c1nnc(NC2CCNC2)o1 (stereo not shown) [Compound 10, 5-{2-[(1,1’-Biphenyl)-4-yl]-4-methylthiazol-5-yl}-N-(pyrrolidin-3-yl)-1,3,4-oxadiazol-2-amine] |  |  |  |  |  | 32 (≈ 79.3 µM) | > 64 | > 64 | > 64 | MIC [5, 14]: 8 mg/L (≈ 19.8 µM); melting point: 116 to 117 °C
Cc1nc(-c2ccc(-c3ccccc3)cc2)sc1-c1nnc(N2CC[C@@H](N(C)C)C2)o1 [Compound 11, (R)-1-{5-[2-((1,1’-biphenyl)-4-yl)-4-methylthiazol-5-yl]-1,3,4-oxadiazol-2-yl}-N,N-dimethylpyrrolidin-3-amine] |  |  |  |  |  | > 64 | > 64 | > 64 | > 64 | MIC [5, 14]: > 64 mg/L; melting point: 165 to 167 °C
Cc1nc(-c2ccc(-c3ccccc3)cc2)sc1-c1nnc(N2CC[C@H](N(C)C)C2)o1 [Compound 12, (S)-1-{5-[2-((1,1’-biphenyl)-4-yl)-4-methylthiazol-5-yl]-1,3,4-oxadiazol-2-yl}-N,N-dimethylpyrrolidin-3-amine] |  |  |  |  |  | 32 (≈ 74.1 µM) | > 64 | > 64 | 16 (≈ 37.1 µM) | MIC [5, 14]: 16 mg/L (≈ 37.1 µM); melting point: 185 to 187 °C
Cc1nc(-c2ccc(-c3ccccc3)cc2)sc1-c1nnc(N2CCC[C@H]2C(N)=O)o1 [Compound 13, (S)-1-{5-[2-((1,1’-biphenyl)-4-yl)-4-methylthiazol-5-yl]-1,3,4-oxadiazol-2-yl}pyro-lidine-2-carboxamide] | >64 | >64 | >64 | >64 | >64 |  |  |  |  | 
Cc1nc(-c2ccc(-c3ccccc3)cc2)sc1-c1nnc(N2CCC[C@@H]2C(N)=O)o1 [Compound 14, (R)-1-{5-[2-((1,1’-biphenyl)-4-yl)-4-methylthiazol-5-yl]-1,3,4-oxadiazol-2-yl}pyro-lidine-2-carboxamide] | >64 | 64 (≈ 148 µM) | >64 | >64 | >64 |  |  |  |  | 
Cc1nc(-c2ccc(-c3ccccc3)cc2)sc1-c1nnc(N2CCCCC2CN)o1 (stereo not shown) [Compound 15, {1-[5-(2-((1,1’-Biphenyl)-4-yl)-4-methylthiazol-5-yl)-1,3,4-oxadiazol-2-yl]piperidin-2-yl}methanamine] |  |  |  |  |  | 16 (≈ 37.1 µM) | > 64 | 16 (≈ 37.1 µM) | 16 (≈ 37.1 µM) | MIC [5, 14]: 16 mg/L (≈ 37.1 µM); melting point: 225 to 227 °C
Cc1nc(-c2ccc(-c3ccccc3)cc2)sc1-c1nnc(N2CCC[C@H]2CO)o1 [Compound 20, (S)-{1-[5-(2-((1,1’-Biphenyl)-4-yl)-4-methylthiazol-5-yl)-1,3,4-oxadiazol-2-yl]pyro-lidin-2-yl}methanol] | >64 | 64 (≈ 153 µM) | >64 | >64 | >64 |  |  |  |  | 
Cc1nc(-c2ccc(-c3ccccc3)cc2)sc1-c1nnc(N2CCC[C@@H]2CO)o1 [Compound 21, (R)-{1-[5-(2-((1,1’-Biphenyl)-4-yl)-4-methylthiazol-5-yl)-1,3,4-oxadiazol-2-yl]pyro-lidin-2-yl}tmethanol] | >64 | >64 | >64 | >64 | >64 |  |  |  |  | 
CNC(C)C1CCC(N)C(OC2C(N)CC(N)C(OC3OCC(C)(O)C(NC)C3O)C2O)O1 (stereo not shown) [Gentamicin, reference compound] |  |  |  |  |  |  | ≤ 0.5 | ≤ 0.5 |  | 
CCC(C)n1ncn(-c2ccc(N3CCN(c4ccc(OCC5COC(Cn6cncn6)(c6ccc(Cl)cc6Cl)O5)cc4)CC3)cc2)c1=O (stereo not shown) [Itraconazole, reference compound] |  |  |  |  |  |  |  |  |  | MIC ([11]; A. fumigatus NR 35303): 1 mg/L (≈ 1.42 µM); MIC ([11]; A. fumigatus NR 35304): 1 mg/L (≈ 1.42 µM)
CC(=O)NC[C@H]1CN(c2ccc(N3CCOCC3)c(F)c2)C(=O)O1 [Linezolid, reference compound] |  |  |  |  |  | 1 (≈ 2.96 µM) | > 64 | 8 (≈ 23.7 µM) | 1 (≈ 2.96 µM) | 
CN[C@H](CC(C)C)C(=O)N[C@H]1C(=O)N[C@@H](CC(N)=O)C(=O)N[C@H]2C(=O)N[C@H]3C(=O)N[C@H](C(=O)N[C@H](C(=O)O)c4cc(O)cc(O)c4-c4cc3ccc4O)[C@H](O)c3ccc(c(Cl)c3)Oc3cc2cc(c3O[C@@H]2O[C@H](CO)[C@@H](O)[C@H](O)[C@H]2O[C@H]2C[C@](C)(N)[C@H](O)[C@H](C)O2)Oc2ccc(cc2Cl)[C@H]1O [Vancomycin, reference compound] |  |  |  |  |  |  |  |  |  | MIC ([10]; Staphylococcus aureus): 1 mg/L (≈ 0.69 µM)
